Tests used:
[1] = Activity coefficients (γi = xidl/xe) of CBZM; assay type: physicochemical
Excerpt: The data for Tfus, ΔHfus, and ΔCp for CBZM were collected from Ref. [20], and they are 462.72 K, 56.93 kJ mol^−1, and 123.03 J mol^−1 K^−1, respectively. Now, Equation (2) was used to determine the xidl values for CBZM. The γi values for CBZM in all cosolvent combinations and pure solvents were obtained using Equation (3):(3) γi=xidl/xe

[2] = set-up: method as in earlier work; settings: all aqueous solutions, including H2O; cited from earlier work

COc1cc2nccc(Oc3ccc(NC(=O)C4(C(=O)Nc5ccc(F)cc5)CC4)cc3)c2cc1OC [CBZM, Cabozantinib malate]
Activity coefficient (γi) ([1]; DMSO mass fraction m = 0.0, T = 298.2 K): 6703
Activity coefficient (γi) ([1]; DMSO mass fraction m = 0.0, T = 303.2 K): 5689
Activity coefficient (γi) ([1]; DMSO mass fraction m = 0.0, T = 308.2 K): 5044
Activity coefficient (γi) ([1]; DMSO mass fraction m = 0.0, T = 313.2 K): 4739
Activity coefficient (γi) ([1]; DMSO mass fraction m = 0.0, T = 318.2 K): 4597
Activity coefficient (γi) ([1]; DMSO mass fraction m = 0.1, T = 298.2 K): 2011
Activity coefficient (γi) ([1]; DMSO mass fraction m = 0.1, T = 303.2 K): 1712
Activity coefficient (γi) ([1]; DMSO mass fraction m = 0.1, T = 308.2 K): 1608
Activity coefficient (γi) ([1]; DMSO mass fraction m = 0.1, T = 313.2 K): 1542
Activity coefficient (γi) ([1]; DMSO mass fraction m = 0.1, T = 318.2 K): 1538
Activity coefficient (γi) ([1]; DMSO mass fraction m = 0.2, T = 298.2 K): 605.5
Activity coefficient (γi) ([1]; DMSO mass fraction m = 0.2, T = 303.2 K): 550.8
Activity coefficient (γi) ([1]; DMSO mass fraction m = 0.2, T = 308.2 K): 521.3
Activity coefficient (γi) ([1]; DMSO mass fraction m = 0.2, T = 313.2 K): 517.5
Activity coefficient (γi) ([1]; DMSO mass fraction m = 0.2, T = 318.2 K): 518.0
Activity coefficient (γi) ([1]; DMSO mass fraction m = 0.3, T = 298.2 K): 187.7
Activity coefficient (γi) ([1]; DMSO mass fraction m = 0.3, T = 303.2 K): 173.5
Activity coefficient (γi) ([1]; DMSO mass fraction m = 0.3, T = 308.2 K): 167.9
Activity coefficient (γi) ([1]; DMSO mass fraction m = 0.3, T = 313.2 K): 169.7
Activity coefficient (γi) ([1]; DMSO mass fraction m = 0.3, T = 318.2 K): 174.4
Activity coefficient (γi) ([1]; DMSO mass fraction m = 0.4, T = 298.2 K): 56.40
Activity coefficient (γi) ([1]; DMSO mass fraction m = 0.4, T = 303.2 K): 55.14
Activity coefficient (γi) ([1]; DMSO mass fraction m = 0.4, T = 308.2 K): 55.29
Activity coefficient (γi) ([1]; DMSO mass fraction m = 0.4, T = 313.2 K): 56.55
Activity coefficient (γi) ([1]; DMSO mass fraction m = 0.4, T = 318.2 K): 59.49
Activity coefficient (γi) ([1]; DMSO mass fraction m = 0.5, T = 298.2 K): 17.42
Activity coefficient (γi) ([1]; DMSO mass fraction m = 0.5, T = 303.2 K): 17.07
Activity coefficient (γi) ([1]; DMSO mass fraction m = 0.5, T = 308.2 K): 17.69
Activity coefficient (γi) ([1]; DMSO mass fraction m = 0.5, T = 313.2 K): 18.40
Activity coefficient (γi) ([1]; DMSO mass fraction m = 0.5, T = 318.2 K): 19.80
Activity coefficient (γi) ([1]; DMSO mass fraction m = 0.6, T = 298.2 K): 5.281
Activity coefficient (γi) ([1]; DMSO mass fraction m = 0.6, T = 303.2 K): 5.524
Activity coefficient (γi) ([1]; DMSO mass fraction m = 0.6, T = 308.2 K): 5.800
Activity coefficient (γi) ([1]; DMSO mass fraction m = 0.6, T = 313.2 K): 6.266
Activity coefficient (γi) ([1]; DMSO mass fraction m = 0.6, T = 318.2 K): 6.776
Activity coefficient (γi) ([1]; DMSO mass fraction m = 0.7, T = 298.2 K): 1.609
Activity coefficient (γi) ([1]; DMSO mass fraction m = 0.7, T = 303.2 K): 1.699
Activity coefficient (γi) ([1]; DMSO mass fraction m = 0.7, T = 308.2 K): 1.853
Activity coefficient (γi) ([1]; DMSO mass fraction m = 0.7, T = 313.2 K): 2.023
Activity coefficient (γi) ([1]; DMSO mass fraction m = 0.7, T = 318.2 K): 2.267
Activity coefficient (γi) ([1]; DMSO mass fraction m = 0.8, T = 298.2 K): 0.4851
Activity coefficient (γi) ([1]; DMSO mass fraction m = 0.8, T = 303.2 K): 0.5430
Activity coefficient (γi) ([1]; DMSO mass fraction m = 0.8, T = 308.2 K): 0.6120
Activity coefficient (γi) ([1]; DMSO mass fraction m = 0.8, T = 313.2 K): 0.6808
Activity coefficient (γi) ([1]; DMSO mass fraction m = 0.8, T = 318.2 K): 0.7771
Activity coefficient (γi) ([1]; DMSO mass fraction m = 0.9, T = 298.2 K): 0.1392
Activity coefficient (γi) ([1]; DMSO mass fraction m = 0.9, T = 303.2 K): 0.1658
Activity coefficient (γi) ([1]; DMSO mass fraction m = 0.9, T = 308.2 K): 0.1932
Activity coefficient (γi) ([1]; DMSO mass fraction m = 0.9, T = 313.2 K): 0.2245
Activity coefficient (γi) ([1]; DMSO mass fraction m = 0.9, T = 318.2 K): 0.2572
Activity coefficient (γi) ([1]; DMSO mass fraction m = 1.0, T = 298.2 K): 0.0455
Activity coefficient (γi) ([1]; DMSO mass fraction m = 1.0, T = 303.2 K): 0.0547
Activity coefficient (γi) ([1]; DMSO mass fraction m = 1.0, T = 308.2 K): 0.0646
Activity coefficient (γi) ([1]; DMSO mass fraction m = 1.0, T = 313.2 K): 0.0771
Activity coefficient (γi) ([1]; DMSO mass fraction m = 1.0, T = 318.2 K): 0.0894
Solubility in aqueous solutions [2]: nearly insoluble

— article PMC10707982, “Solubility and Thermodynamics Data of Cabozantinib Malate in Various Aqueous Solutions of Dimethyl Sulfoxide at Different Temperatures” (Molecules, 2023)
